These are literature values, as cited in article PMC6916687 (Drug Design, Development and Therapy, 2019).

In one data set the test system is QGY-7703 cells. The settings on record: read-out: IC50 for QGY-7703 cells.
In a further data set the test system is MDA-MB-231 cells. The following applies: read-out: IC50 for MDA-MB-231 cells.

The IC50 is the midpoint of a concentration-inhibition curve. Turning to `O=c1c2ccccc2oc2cc(-c3ccccc3)ccc12` [3-phenylxanthone], in the data set on QGY-7703 cells, the IC50 is 6.27 µM.
Consider `Cc1ccc2c(=O)c3cccc(CC(=O)O)c3oc2c1C` [DMXAA, 5,6-dimethylxanthone-4-acetic acid], for which the concentration for half-maximal inhibition (IC50) in the data set with MDA-MB-231 cells is 48.4 µM.
